IC50 data for 11 compounds are collected here from article PMC7321403, “Synthesis and In Vitro Cytotoxicity and Antibacterial Activity of Novel 1,2,3-Triazol-5-yl-Phosphonates” (Molecules, 2020).

The structures appear in SMILES notation.

One data set relates to B. subtilis-GFP. Description: Antibacterial activity on GFP producing Gram-positive bacteria (fluorimetry). The data set is classed as cell-based, Bacillus subtilis. As to conditions: Bacillus subtilis; GFP fluorescence, 1–30 µM tested, mean ± SD. The method, then:
(§1) Finally, the biological activity of the synthesized 1,2,3-triazol-5-yl-phosphonates (8, 11–26) was investigated. On the one hand, the antibacterial activity of the compounds was tested on GFP producing Gram-positive (Bacillus subtilis) and Gram-negative (Escherichia coli) bacterial cells. The GFP producing bacteria are an effective tool for screening for antibacterial activity since GFP signal measured via fluorimetry is proportional to the number of bacterial cells. Active compounds would kill bacterial cells, which results in the decrease in GFP fluorescence signal, therefore it is suitable for evaluating the antimicrobial effect of different agents. On the other hand, in vitro cytotoxicity assessments were performed on three different cell lines, such as human lung adenocarcinoma (A549), mouse fibroblast (NIH/3T3) as healthy cell line and human promyelocytic leukemia (HL-60). Table 3 contains the determined IC50 values in antimicrobial and cytotoxicity assays. According to the results, only modest antibacterial activity was detected against the more sensitive Bacillus subtilis strain.
(§2) All reagents were purchased from Sigma-Aldrich (Hungary, Budapest). E. coli-GFP and B. subtilis-GFP bacteria were grown in Lysogeny Broth (Luria-Bertani broth, LB, 10 g tryptone, 5 g yeast extract, 10 g/L NaCl, pH 7.0) medium overnight (ON) at 37 °C in an incubator with continuous shaking. The ON bacterial culture was diluted (E. coli-GFP: 1:10000, B. subtilis-GFP: 1:1000) in LB medium containing 10 µg/mL ampicillin. Two hundred microliters of diluted E. coli suspension per well were transferred to 96-well plates and different agents were added in the appropriate concentration, then incubated in a shaker (600 rpm) for 3 h at 37 °C. Test compounds were dissolved in 3-fold amounts of dimethyl sulfoxide (DMSO). […] For induction of the GFP expression IPTG (0.1 mM final concentration) was added to each well and incubated for 3 h at 37 °C.
(§3) The following incubation samples were centrifuged at 2750 rpm at room temperature (RT) for 5 min and washed twice with 200 µL PBS, with a centrifugation step between the two washes. After a third centrifugation step, the bacterial cells were suspended in 100 µL PBS. The number of bacteria was estimated according to the fluorimetric measurements. The fluorescence of the bacterial cells was measured by the Victor™ 1420 Multilabel Counter (Perkin Elmer, Waltham, MA, USA) at 485/535 nm for 1 sec per well controlled by Wallac 1420 Manager software. Each treatment was repeated in at least 2 wells per plate during the experiments. Percentage fluorescence intensity based on the quantity of E. coli-GFP cells was calculated using untreated control values as 100%. Error was represented by standard deviation (SD).

The test system of another data set is E. coli-GFP. Kind of data set: Antibacterial activity on GFP producing Gram-negative bacteria (fluorimetry). The data set is classed as cell-based, Escherichia coli. To be noted: Escherichia coli; GFP fluorescence, 1–30 µM tested, mean ± SD. The procedure: as §1, §2, §3
Data set [1] in a line: in vitro. To be noted: human.
Description: (§4) Cells were purchased from the American Type Culture Collection (ATCC, Manassas, VA, USA). Human lung adenocarcinoma A549 cells were maintained in Dulbecco's Modified Eagle Medium (DMEM), while mouse fibroblast NIH/3T3 and human promyelocytic leukemia HL-60 cells were maintained in Roswell Park Memorial Institute 1640 medium (RPMI-1640) containing 10% FCS. Media were supplemented with 2 mM GlutaMAX, 100 U/mL penicillin, and 100 µg/mL streptomycin (Life Technologies, Carlsbad, California, USA). Cell cultures were maintained at 37 °C in a humidified incubator in an atmosphere of 5% CO2 (Sanyo, Japan).
(§5) Cytotoxicity of the synthesized molecules was determined on A549, NIH/3T3 and HL-60 cells using the fluorescent Resazurin assay as described previously [46].
(§6) Briefly, cells (A549 and NIH/3T3: 6000, HL-60: 120.000 cells/well) were seeded into 96-well plates (Corning Life Sciences) in media and incubated overnight. Test compounds were dissolved in three-fold amounts of dimethyl sulfoxide (DMSO). Cells were treated with an increasing concentration of test compounds (1–30 µM). […] Cell viability was determined after 72 h incubation. Resazurin reagent (Sigma-Aldrich) was added at a final concentration of 25 µg/mL. After a 2 h incubation at 37 °C in 5% CO2, fluorescence (530 nm excitation/580 nm emission) was recorded on a multimode microplate reader (Cytofluor4000, PerSeptive Biosytems). Viability was calculated with relation to untreated control cells and blank wells containing media without cells. […] A Student’s t test was performed for individual test compound concentrations with relation to untreated control cell viability values.
The nature of data set [2]: in vitro. As to conditions: mouse.
Description: as §4, §5, §6
The nature of data set [3]: In vitro cytotoxicity, fluorescent Resazurin assay. As to conditions: human, HL-60 cells (human promyelocytic leukemia), In Vitro Cytotoxicity (IC50, µM) HL-60, 72 h incubation, 1–30 µM tested, mean ± SD. A general note: The colour change of resazurin is a common sign of viable cells or microbes.
Description: as §4, §5, §6
Setting [4] is: A549 cells (human lung adenocarcinoma).
Setting [5] is: NIH/3T3 cells (mouse fibroblast).

For the compound `CCCCOP(=O)(OCCCC)c1c(-c2ccccc2)nnn1Cc1ccccc1` [Compound 8, Dibutyl (1-benzyl-4-phenyl-1,2,3-triazol-5-yl)phosphonate], the IC50 in the data set on B. subtilis-GFP and with E. coli-GFP was more than 30 µM throughout. In addition, the IC50 at 72 h in “in vitro [1]” (setting [4]) is more than 30 µM; in the data set “in vitro [2]” (setting [5]) it was 27.5 ± 1.4 µM; in data set [3], more than 30 µM.

For the compound `CCCOP(=O)(OCCC)c1c(-c2ccccc2)nnn1Cc1ccccc1` [Compound 13, Dipropyl (1-benzyl-4-phenyl-1,2,3-triazol-5-yl)phosphonate], the results for the IC50 with B. subtilis-GFP and in the data set on E. coli-GFP were 29.3 ± 1.2 µM and more than 30 µM, respectively. Further, the 50% inhibitory concentration (IC50) at 72 h was more than 30 µM in “in vitro [1]” (setting [4]), more than 30 µM in “in vitro [2]” (setting [5]) and 12.6 ± 1.7 µM in data set [3].

As for `CC(C)OP(=O)(OC(C)C)c1c(-c2ccccc2)nnn1Cc1ccccc1` [Compound 14, Diisopropyl (1-benzyl-4-phenyl-1,2,3-triazol-5-yl)phosphonate], the IC50 with B. subtilis-GFP and in the data set with E. coli-GFP was more than 30 µM in each case. Further, the IC50 at 72 h (in the data set “in vitro [1]” (setting [4]); in the data set “in vitro [2]” (setting [5]); in data set [3]) was more than 30 µM throughout.

On to `CCCCCOP(=O)(OCCCCC)c1c(-c2ccccc2)nnn1Cc1ccccc1` [Compound 15, Dipentyl (1-benzyl-4-phenyl-1,2,3-triazol-5-yl)phosphonate], for which the IC50 in the data set on B. subtilis-GFP is 23.9 ± 1 µM; in the data set with E. coli-GFP, more than 30 µM. Besides, the IC50 at 72 h in “in vitro [1]” (setting [4]) is more than 30 µM; in “in vitro [2]” (setting [5]), 26.2 ± 1.1 µM; in data set [3], 15.4 ± 1.2 µM.

As to `CCCCOP(=O)(OCCCC)c1c(-c2ccccc2)nnn1Cc1ccc(C)cc1` [Compound 18, Dibutyl [1-(4-methylbenzyl)-4-phenyl-1,2,3-triazol-5-yl]phosphonate], the IC50 in the data set with B. subtilis-GFP is 18.2 ± 1 µM; with E. coli-GFP, more than 30 µM. The 50% inhibitory concentration (IC50) at 72 h (in “in vitro [1]” (setting [4]); in the data set “in vitro [2]” (setting [5]); in data set [3]) was more than 30 µM each time.

Turning to `CCCCOP(=O)(OCCCC)c1c(-c2ccccc2)nnn1Cc1ccccc1F` [Compound 19, Dibutyl [1-(2-fluorobenzyl)-4-phenyl-1,2,3-triazol-5-yl]phosphonate], the 50% inhibitory concentration (IC50) in the data set with B. subtilis-GFP was 19.3 ± 1 µM; in the data set with E. coli-GFP, more than 30 µM. For the same compound, the half-maximal inhibitory concentration (IC50) at 72 h in the data set “in vitro [1]” (setting [4]) is more than 30 µM; in “in vitro [2]” (setting [5]), 27.5 ± 1.1 µM; in data set [3], 11.7 ± 1.2 µM.

`CCCCOP(=O)(OCCCC)c1c(-c2ccccc2)nnn1Cc1cccc(F)c1` [Compound 20, Dibutyl [1-(3-fluorobenzyl)-4-phenyl-1,2,3-triazol-5-yl]phosphonate]: the IC50 with B. subtilis-GFP and with E. coli-GFP was more than 30 µM in each case. Also, the results for the IC50 at 72 h (in the data set “in vitro [1]” (setting [4]); in the data set “in vitro [2]” (setting [5]); in data set [3]) were more than 30 µM, more than 30 µM and 15.4 ± 1.2 µM, respectively.

For the compound `CCCCOP(=O)(OCCCC)c1c(-c2ccccc2)nnn1Cc1ccc(F)cc1` [Compound 21, Dibutyl [1-(4-fluorobenzyl)-4-phenyl-1,2,3-triazol-5-yl]phosphonate], the IC50 in the data set on B. subtilis-GFP is 23.2 ± 1.1 µM; in the data set with E. coli-GFP, more than 30 µM. Moreover, the concentration for half-maximal inhibition (IC50) at 72 h is more than 30 µM in “in vitro [1]” (setting [4]), more than 30 µM in “in vitro [2]” (setting [5]) and 16.6 ± 1.3 µM in data set [3].

For `COc1cccc2c1C(=O)c1c(O)c3c(c(O)c1C2=O)C[C@@](O)(C(=O)CO)C[C@@H]3O[C@H]1C[C@H](N)[C@H](O)[C@H](C)O1` [Doxorubicin, reference compound], the IC50 at 72 h in the data set “in vitro [1]” turned out to be 0.31 ± 0.24 µM; in the data set “in vitro [2]”, 5.65 ± 0.81 µM.

As for `C[C@H]1c2cccc(O)c2C(=O)C2=C(O)[C@]3(O)C(=O)C(C(N)=O)=C(O)[C@@H](N(C)C)[C@@H]3[C@@H](O)[C@@H]21` [Doxycycline, reference compound], the IC50 in the data set on B. subtilis-GFP was 0.04 ± 0.01 µM; in the data set with E. coli-GFP, 0.1 ± 0.02 µM.

In the case of `CNC(C)C1CCC(N)C(OC2C(N)CC(N)C(OC3OCC(C)(O)C(NC)C3O)C2O)O1` (stereo not shown) [Gentamicin, reference compound], the 50% inhibitory concentration (IC50) worked out at 0.49 ± 0.14 µM with B. subtilis-GFP and 4.23 ± 0.99 µM with E. coli-GFP.

Usually IC50 stands for the midpoint of a concentration-inhibition curve. Higher therefore signals a need for much substance.
